Measurements: patent US9475816B2, “Substituted-1,4-dihydropyrazolo[4,3-b]indoles” (TAKEDA PHARMACEUTICAL COMPANY LIMITED, priority 2012, dated 2016)

Tests used:
[1] = target: T1, human MetAP2 enzyme (Homo sapiens, UniProt P50579); assay: MetAP2 enzyme assay, MetAP2 enzyme complexed with cobalt ions; conditions: MetAP2 Co pIC50, 10 μM CoCl2; -log(IC50), IC50 molar
Experimental: DNA encoding the full-length sequence of human MetAP2 enzyme is amplified by PCR and cloned into a pFastBac expression vector (Invitrogen). Recombinant baculovirus incorporating the MetAP2 construct is generated by transposition using the Bac-to-Bac system (Invitrogen). The expression of recombinant protein is carried out by infection of Spodoptera frugiperda Sf9 cells (Invitrogen) in 5L Wave Bioreactors (Wave Biotech). Recombinant protein is isolated from cellular extracts by binding to an SP Hitrap Fast Flow or SP Sepharose (Sigma) column, and the protein is eluted using a NaCl gradient. Partially purified extracts of MetAP2 are further purified by an AKTA FPLC over a Superdex-200 column (GE). The purity of MetAP2 protein is determined on denaturing SDS-PAGE gel.
The results for each well are expressed as percent inhibition and calculated using the equation:

[2] = target: T1, human MetAP2 enzyme; assay: MetAP2 enzyme assay, MetAP2 enzyme complexed with manganese ions; conditions: MetAP2 Mn pIC50, 10 μM MnCl2; -log(IC50), IC50 molar

T1 sequence (P50579 whole entry): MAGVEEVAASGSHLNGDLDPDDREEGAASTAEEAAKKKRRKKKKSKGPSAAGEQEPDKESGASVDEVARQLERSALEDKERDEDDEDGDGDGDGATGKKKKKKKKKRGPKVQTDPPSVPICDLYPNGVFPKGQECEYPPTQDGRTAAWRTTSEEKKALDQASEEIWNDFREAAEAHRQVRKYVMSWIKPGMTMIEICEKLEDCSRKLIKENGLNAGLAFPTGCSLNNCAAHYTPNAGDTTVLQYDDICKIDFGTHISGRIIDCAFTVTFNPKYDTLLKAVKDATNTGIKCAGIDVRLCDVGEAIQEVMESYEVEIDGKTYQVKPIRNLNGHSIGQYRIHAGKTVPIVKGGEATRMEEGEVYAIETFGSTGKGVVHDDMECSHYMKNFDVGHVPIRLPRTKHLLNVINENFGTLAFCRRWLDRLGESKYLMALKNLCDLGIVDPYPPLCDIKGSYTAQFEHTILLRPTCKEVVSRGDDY

| Structure (SMILES) | IC50 [1] | IC50 [2] |
| --- | --- | --- |
| Cc1nc(CCS(C)(=O)=O)ccc1-n1c2ccc(F)cc2c2[nH]ncc21 [Example 133, 7-Fluoro-4-(2-methyl-6-(2-(methylsulfonyl)ethyl)pyridin-3-yl)-1,4-dihydropyrazolo[4,3-b]indole] | 0.01 µM | 0.00631 µM |
| Cc1cc2cn(C)nc2cc1-n1c2ccc(F)cc2c2[nH]ncc21 [Example 16, 4-(2,5-Dimethyl-2H-indazol-6-yl)-7-fluoro-1,4-dihydropyrazolo[4,3-b]indole] | 0.00794 µM | 0.00631 µM |
| CN1CCN(c2cc(-n3c4ccc(F)cc4c4[nH]ncc43)ccn2)CC1 [Example 8, 7-Fluoro-4-(2-(4-methylpiperazin-1-yl)pyridin-4-yl)-1,4-dihydropyrazolo[4,3-b]indole] | 0.0251 µM | 0.00501 µM |
| Cc1cc(C(=O)NC2(CO)CC2)ncc1-n1c2ccc(F)cc2c2[nH]ncc21 [Example 104, 5-(7-Fluoropyrazolo[4,3-b]indol-4(1H)-yl)-N-(1-(hydroxymethyl)cyclopropyl)-4-methylpicolinamide] | 0.01 µM | 0.0126 µM |
| COc1ccc(-n2c3ccc(F)cc3c3[nH]ncc32)c(C)n1 [Example 69, 7-Fluoro-4-(6-methoxy-2-methylpyridin-3-yl)-1,4-dihydropyrazolo[4,3-b]indole] | 0.02 µM | 0.00501 µM |
| Cc1cc(C(=O)NCCO)ncc1-n1c2ccc(F)cc2c2[nH]ncc21 [Example 95, 5-(7-Fluoropyrazolo[4,3-b]indol-4(1H)-yl)-N-(2-hydroxyethyl)-4-methylpicolinamide] | 0.0316 µM | 0.02 µM |
| Cc1nc(C(=O)NCCCO)ccc1-n1c2ccc(F)cc2c2[nH]ncc21 [Example 118, 5-(7-Fluoropyrazolo[4,3-b]indol-4(1H)-yl)-N-(3-hydroxypropyl)-6-methylpicolinamide] | 0.0251 µM | 0.01 µM |
| Cc1c(-n2c3ccc(F)cc3c3[nH]ncc32)ccc2ncnn12 [Example 70, 7-Fluoro-4-(5-methyl-[1,2,4]triazolo[1,5-a]pyridin-6-yl)-1,4-dihydropyrazolo[4,3-b]indole] | 0.02 µM | 0.01 µM |
| Cc1cc2c(cc1F)c1[nH]ncc1n2-c1cc2[nH]cnc2nc1C [Example 131, 7-Fluoro-6-methyl-4-(5-methyl-1H-imidazo[4,5-b]pyridin-6-yl)-1,4-dihydropyrazolo[4,3-b]indole] | 0.0126 µM | 0.00794 µM |
| Cc1nc(C(=O)N2CC(O)C2)ccc1-n1c2ccc(F)cc2c2[nH]ncc21 [Example 97, (5-(7-Fluoropyrazolo[4,3-b]indol-4(1H)-yl)-6-methylpyridin-2-yl)(3-hydroxyazetidin-1-yl)methanone] | 0.01 µM | 0.00631 µM |
| Cc1nn(C)c(C)c1-n1c2ccc(F)cc2c2[nH]ncc21 [Example 62, 7-Fluoro-4-(1,3,5-trimethyl-1H-pyrazol-4-yl)-1,4-dihydropyrazolo[4,3-b]indole] | 0.0251 µM | 0.0316 µM |
| Cc1c(-n2c3ccc(F)cc3c3[nH]ncc32)cnc(N)c1C [Example 68, 5-(7-Fluoropyrazolo[4,3-b]indol-4(1H)-yl)-3,4-dimethylpyridin-2-amine] | 0.01 µM | 0.00316 µM |
| COCCNC(=O)c1ccc(-n2c3ccc(F)cc3c3[nH]ncc32)c(C)n1 [Example 102, 5-(7-Fluoropyrazolo[4,3-b]indol-4(1H)-yl)-N-(2-methoxyethyl)-6-methylpicolinamide] | 0.0316 µM | 0.0398 µM |
| Cn1cc(-n2c3ccc(F)cc3c3[nH]ncc32)c(CO)n1 [Example 138, (4-(7-Fluoropyrazolo[4,3-b]indol-4(1H)-yl)-1-methyl-1H-pyrazol-3-yl)methanol] | 0.01 µM | 0.00501 µM |
| Cc1nc(N2C[C@H]3C[C@H]3[C@@H]2C(N)=O)ncc1-n1c2ccc(F)cc2c2[nH]ncc21 [Example 135, (1R,2R,5S)-3-(5-(7-Fluoropyrazolo[4,3-b]indol-4(1H)-yl)-4-methylpyrimidin-2-yl)-3-azabicyclo[3.1.0]hexane-2-carboxamide] | 0.00501 µM | 0.00501 µM |
| Cc1cc(C(=O)N2CC(N)C2)ncc1-n1c2ccc(F)cc2c2[nH]ncc21 [Example 114, (3-Aminoazetidin-1-yl)(5-(7-fluoropyrazolo[4,3-b]indol-4(1H)-yl)-4-methylpyridin-2-yl)methanone] | 0.0251 µM | 0.0126 µM |
| Cc1nc(N2CC[C@@H](O)C2)ncc1-n1c2ccc(F)cc2c2[nH]ncc21 [Example 58, (3R)-1-(5-(7-Fluoropyrazolo[4,3-b]indol-4(1H)-yl)-4-methylpyrimidin-2-yl)pyrrolidin-3-ol] | 0.0158 µM | 0.0126 µM |
| Cc1nc(C(=O)N2CC(N)C2)ccc1-n1c2ccc(F)cc2c2[nH]ncc21 [Example 117, (3-Aminoazetidin-1-yl)(5-(7-fluoropyrazolo[4,3-b]indol-4(1H)-yl)-6-methylpyridin-2-yl)methanone] | 0.02 µM | 0.00794 µM |
| Cc1nc(N2CC[C@H](S(C)(=O)=O)C2)ncc1-n1c2ccc(F)cc2c2[nH]ncc21 [Example 137, 7-Fluoro-4-(4-methyl-2-((S)-3-(methylsulfonyl)pyrrolidin-1-yl)pyrimidin-5-yl)-1,4-dihydropyrazolo[4,3-b]indole] | 0.01 µM | 0.00631 µM |
| Cc1nc(N2CC[C@H](O)C2)ncc1-n1c2ccc(F)cc2c2[nH]ncc21 [Example 55, (S)-1-(5-(7-Fluoropyrazolo[4,3-b]indol-4(1H)-yl)-4-methylpyrimidin-2-yl)pyrrolidin-3-ol] | 0.0251 µM | 0.0158 µM |
| Cc1nc2[nH]cnc2cc1-n1c2cc(Cl)ccc2c2[nH]ncc21 [Example 128, 6-Chloro-4-(5-methyl-3H-imidazo[4,5-b]pyridin-6-yl)-1,4-dihydropyrazolo[4,3-b]indole] | 0.0794 µM | 0.0631 µM |
| CCn1nc(C)c(-n2c3ccc(F)cc3c3[nH]ncc32)c1C [Example 23, 4-(1-Ethyl-3,5-dimethyl-1H-pyrazol-4-yl)-7-fluoro-1,4-dihydropyrazolo[4,3-b]indole] | 0.01 µM | 0.0158 µM |
| Cc1nc(N2CC(C(N)=O)C2)ncc1-n1c2ccc(F)cc2c2[nH]ncc21 [Example 89, 1-(5-(7-Fluoropyrazolo[4,3-b]indol-4(1H)-yl)-4-methylpyrimidin-2-yl)azetidine-3-carboxamide] | 0.02 µM | 0.01 µM |
| Cc1[nH]c(=O)ccc1-n1c2ccc(F)cc2c2[nH]ncc21 [Example 40, 5-(7-Fluoropyrazolo[4,3-b]indol-4(1H)-yl)-6-methylpyridin-2(1H)-one] | 0.0158 µM | 0.0158 µM |
| Fc1ccc2c(c1)c1[nH]ncc1n2Cc1ccccc1 [Example 1, 4-Benzyl-7-fluoro-1,4-dihydropyrazolo[4,3-b]indole] | 0.0398 µM | 0.0316 µM |
| Cc1nc(N2CC[C@H](C(N)=O)C2)ncc1-n1c2ccc(F)cc2c2[nH]ncc21 [Example 21, (3S)-1-(5-(7-Fluoropyrazolo[4,3-b]indol-4(1H)-yl)-4-methylpyrimidin-2-yl)pyrrolidine-3-carboxamide] | 0.0158 µM | 0.00794 µM |
| Cc1cc2cnn(C)c2cc1-n1c2ccc(F)cc2c2[nH]ncc21 [Example 14, 4-(1,5-Dimethyl-1H-indazol-6-yl)-7-fluoro-1,4-dihydropyrazolo[4,3-b]indole] | 0.00794 µM | 0.00794 µM |
